The values that follow are results of earlier work, collected in US20140140997A1, “Methods of Treating Retroviral Infections in Felines” (CytoDyn Inc., priority 2011, published 2014).

The test system of one data set is CD11a binding to ICAM-1. The settings on record: Weitz-Schmidt et al. 2004; Welzenbach et al. 2002.
Another data set relates to LFA-1. The settings on record: Wang et al. 2009; Almog 2003.

In the case of `CC[C@H](C)C(=O)O[C@H]1C[C@@H](C)C=C2C=C[C@H](C)[C@H](CC[C@@H]3C[C@H](CC(=O)NC)N(Cc4ccc(O)c(OC)c4)C(=O)O3)[C@H]21` [LFA878], the “prevention of CD11a binding to ICAM-1” value in the data set on CD11a binding to ICAM-1 was “preventing the ability of CD11a to bind to ICAM-1”. `CC[C@H](C)C(=O)O[C@H]1C[C@@H](C)C=C2C=C[C@H](C)[C@H](CC[C@@H]3C[C@@H](O)CC(=O)O3)[C@H]21` [Lovastatin, (1S,3R,7S,8S,8aR)-8-{2-[(2R,4R)-4-hydroxy-6-oxooxan-2-yl]ethyl}-3,7-dimethyl-1,2,3,7,8,8a-hexahydronaphthalen-1-yl (2S)-2-methylbutanoate]: the “inhibition of LFA-1 activation” value with LFA-1 is on record as “inhibit LFA-1 activation”. Take `O=C(NCc1cccc(O)c1)c1cc(Cl)c(C(=O)N[C@@H](CNC(=O)c2cc(O)cc(O)c2)C(=O)O)c(Cl)c1` [XVA143]: the “prevention of CD11a binding to ICAM-1” value in the data set with CD11a binding to ICAM-1 is “preventing the ability of CD11a to bind to ICAM-1”. On to `CCC(C)(C)C(=O)O[C@H]1C[C@@H](C)C=C2C=C[C@H](C)[C@H](CC[C@@H]3C[C@@H](O)CC(=O)O3)[C@H]21` [simvastatin, (1S,3R,7S,8S,8aR)-8-(2-((2R,4R)-4-hydroxy-6-oxotetrahydro-2H-pyran-2-yl)ethyl)-3,7-dimethyl-1,2,3,7,8,8a-hexahydronaphthalen-1-yl 2,2-dimethylbutanoate], for which, in the data set with LFA-1, the “inhibition of LFA-1 activation” value is on record as “inhibit LFA-1 activation”.
